The source of these data is patent US11344009B2, “All sterile males of culicine mosquitoes: a method of creation” (priority 2014, dated 2022).

The test system of one data set is Tra-2. The data set is described as follows: Q-PCR of Tra-2 knockdown level in Tra-2 RNAi/Tet-on transgenic males induced by Dox. The format is in vivo, Aedes aegypti. As to the method: (§1) The Ae. aegypti strain named Hanoi1 was transformed with a Tra-2 RNAi (long dsmRNA) construct. This construct was assembled with rtTA(pTet-on advanced) and pTre-tight regulatory system as mentioned in Example 1. The strain was challenged with Dox three different concentrations (0.3 mg/L; 3 mg/L and 30 mg/L) between the third larvae stage and 3 day old adult. The males from each Dox concentration challenge were divided into two groups; one group was Q-PCR to reveal the knockdown level of Tra-2. The other group was outcrossed with wild type females. Total RNA from Hanoi 1 wild type males and Tra-2 RNAi/Hanoi 1 transgenic males were isolated in pools of 5 males in 3 biological replicates. The primers used for Actin5C (endogenous reference gene) were F: (5′-[…]-3′) (SEQ ID NO: 53) and R: (5′-[…]-3′) (SEQ ID NO: 54) which produced a 125 bp fragment. Primers used for amplifying Tra-2, which produced a 125 bp fragment nearby the Tra-2 RNAi target site, were: Forward: (5′ […] 3′) (SEQ ID NO: 55) and Reverse: (5′ […] 3′) (SEQ ID NO: 56). Three biological replicates were carried out in each Dox condition. The knockdown of expression levels were calculated by the relative standard curve method (Applied Biosystems), in which Act5C as an endogenous reference and wild type Hanoi 1 as an exogenous calibrator. PCR cycle was 95° C. for 15 mins; 45 cycles of 10 sec at 95° C., 10 sec at XC, 20 sec at 72° C., plate reading. X is annealing temperature, of which 59° C. for the reference gene Actin5C and 55° C. was used for Tra-2 primers. […] 0.3 mg/L caused a slight difference in comparison with wild type (96.98% wild type). […] See details in FIG. 2.

The test system of data set [1] is wMel Wolbachia in Ae. albopictus strains (Hanoi 1 and Laos2). The data set is described as follows: Dox challenge of Wolbachia trans-infected lines, PCR re-test for presence of Wolbachia (wsp primers 81F/691R). The format is in vivo, Aedes albopictus. The settings on record: for Pupae (number from 50 3rd-4th larvae on Dox) / 3 day old adult (on Dox), number: Dox 30 mg/L; for 3 day old adult (on Dox), number: 4-5 days from third larvae to 3 day old adults; for 81F/691R PCR test, number with Wolbachia / 81F/691R PCR test, share with Wolbachia: after Dox 30 mg/L challenge. How it is done:
Ae. albopictus strains (Hanoi 1 and Laos2) were trans-infected with Wolbachia from a Drosophila line (Oregon-R). This fly carries wMel Wolbachia. Drosophila embryos were collected as mentioned above. 1-2 day old virgin females were anaesthetized and microinjected directly in the thorax. […] These lines were maintained at a standard condition and challenged with the presence of Dox (30 mg/L) in 4-5 days from the third larvae to 3 day old adults. They were PCR re-tested for the presence of Wolbachia after the challenge using universal wsp primers 81F and 691R^38.

In data set [2] the test system is Ae. aegypti strain (Hanoi1). The data set is described as follows: Transient expression of long dsmRNA Tra-2 RNAi construct (AaKLC2.1-long-02) injected into embryos; female lethality induced by different Dox concentrations. The format is in vivo, Aedes aegypti. The settings on record: for Hatched rate (hatched/injected embryos): 500 embryos injected with AaKLC2.1-long-02. An excerpt:
In this example, we show the transient expression of a Tra-2 RNAi construct which created long dsmRNAs. The detail method to create this construct was described in Example 4. The promoter driving rtTA protein was AaKLC2.1. In the presence of doxycycline (Dox), Tet-On Advanced binds to the tetracycline response element in pTre-tight, and produces high-level tran-scription of the downstream gene. Ae. aegypti strain (Hanoi1) was fed on blood containing three different Dox concentrations to produce eggs containing different Dox doses (mg/litre). The construct named AaKLC2.1-long-02 after Maxiprep purification was diluted in 1^x injection buffer at 1.6 μg/μl. Embryos were desiccated briefly in 50 sec and stuck into a plastic cover slip via a piece of double sticky tape. The Voltalef oil was used to cover the embryos. After injection, the cover slip was then immediately transferred into a cover slip staining rack which was kept in a sealed plastic box with 100% humidity at 27° C. for 3-4 days and then hatched in Dox deoxygenated water. 500 embryos were injected in each Dox concentration. Larvae were reared under standard conditions. Three different Dox concentrations which were equivalent to the concentrations in blood meals were added to the rearing water. The sex ratio among survivors of each Dox concentration were shown in the below table.

The test system of data set [3] is Ae. aegypti strain Hanoi1 transformed with Tra-2 RNAi (long dsmRNA) construct. The data set can be described thus: Outcross of Dox-induced homozygous Tra-2 RNAi transgenic males with wild type virgin females, sex ratio of the crosses. It counts as in vivo, Aedes aegypti. As to the method: as §1
10 homozygous males (3 day old) from each concentration were crossed with 10 wild type virgin females.

Each structure is given as a SMILES string.

With `C[C@H]1c2cccc(O)c2C(=O)C2=C(O)[C@]3(O)C(=O)C(C(N)=O)=C(O)[C@@H](N(C)C)[C@@H]3[C@@H](O)[C@@H]21` [Dox, Doxycycline], the “Expression level of Tra-2 in males” value was 96.98 % wild type in the data set with Tra-2 (Dox 0.3 mg/L, third larvae stage to 3 day old adult); 73.7 % wild type with Tra-2 (Dox 3 mg/L, third larvae stage to 3 day old adult); 33.26 % wild type in the data set with Tra-2 (Dox 30 mg/L, after 5 days treatment). The “Pupae (number from 50 3rd-4th larvae on Dox)” value in data set [1] (wMel/Ae.albopictus Hanoi 1) and in data set [1] (wMel/Ae.albopictus Laos2) was 50 each time. Further, the “3 day old adult (on Dox), number” value worked out at 49 in data set [1] (wMel/Ae.albopictus Hanoi 1) and 50 in data set [1] (wMel/Ae.albopictus Laos2). Further, the “81F/691R PCR test, number with Wolbachia” value came to 49 in data set [1] (wMel/Ae.albopictus Hanoi 1) and 50 in data set [1] (wMel/Ae.albopictus Laos2). Also, the “81F/691R PCR test, share with Wolbachia” value in data set [1] (wMel/Ae.albopictus Hanoi 1) and in data set [1] (wMel/Ae.albopictus Laos2) was 100% each time. In addition, the figures for the Hatched rate entry in data set [2] (0.3 mg of Dox/L), in data set [2] (3 mg of Dox/L) and in data set [2] (30 mg of Dox/L) were “(24.4) %”, “(18.6) %” and “(14.8) %”, respectively. For the same compound, the “Hatched rate (hatched/injected embryos)” value in data set [2] (0.3 mg of Dox/L) is on record as 122/500; in data set [2] (3 mg of Dox/L), 93/500; in data set [2] (30 mg of Dox/L) it was 74/500. The “Hatch rate (value in brackets)” value in data set [3] (males induced at 0.3 mg/L Dox) came to 95.40; in data set [3] (males induced at 3 mg/L Dox), 90.60; in data set [3] (males induced at 30 mg/L Dox), 91.60. The “Male ratio (value in brackets)” value is given as 51.53 in data set [3] (males induced at 0.3 mg/L Dox), 64.88 in data set [3] (males induced at 3 mg/L Dox) and 93.47 in data set [3] (males induced at 30 mg/L Dox).
